Assay results reported in patent publication US12599602B2, “Methods for treating cholestasis” (Mirum Pharmaceuticals, Inc., priority 2019, dated 2026).
Counter-ions that a name gives are not always drawn.

System: Overweight and obese adults
Experiment: Phase 1 blinded, placebo-controlled, dose-ranging clinical study (NCT02475317), fecal bile acid excretion
Protocol: Participants consumed a low-fiber diet (<10 mg/day) for 2 days before randomization and during the 7-day treatment period. Measurements were taken of fBA, sBA concentration, and serum 7αC4 concentration (which is a biomarker of bile acid synthesis) prior to drug administration and at day 7.

Compound: CCCC[C@]1(CC)CS(=O)(=O)c2ccc(N(C)C)cc2[C@@H](c2cccc(NC(=O)N[C@@H]3O[C@H](COS(=O)(=O)O)[C@@H](O)[C@H](OCc4ccccc4)[C@H]3O)c2)[C@H]1O [volixibat, (2R,3R,4S,5R,6R)-4-benzyloxy-6-{3-[3-((3S,4R,5R)-3-butyl-7-dimethylamino-3-ethyl-4-hydroxy-1,1-dioxo-2,3,4,5-tetrahydro-1H-benzo[b]thiepin-5-yl)-phenyl]-ureido}-3,5-dihydroxy-tetrahydro-pyran-2-ylmethyl) hydrogen sulfate]
- Mean sBA levels (7 days): not elevated
- fBA excretion (across doses): increased in a dose-dependent manner
- treatment-emergent adverse events occurring in over 10% of participants (all doses): headache and diarrhea
- treatment-emergent adverse events, severity (all doses): mild, and none were serious
- Mean serum 7αC4 (baseline to day 7): increased
